Reference: ChEMBL document CHEMBL1127366, “Structure--activity relationships of sialyl Lewis x-containing oligosaccharides. 1. Effect of modifications of the fucose moiety” (J Med Chem, 1994)

Molecular target: T1, E-selectin (Homo sapiens, UniProt P16581)
T1 sequence (P16581 whole entry): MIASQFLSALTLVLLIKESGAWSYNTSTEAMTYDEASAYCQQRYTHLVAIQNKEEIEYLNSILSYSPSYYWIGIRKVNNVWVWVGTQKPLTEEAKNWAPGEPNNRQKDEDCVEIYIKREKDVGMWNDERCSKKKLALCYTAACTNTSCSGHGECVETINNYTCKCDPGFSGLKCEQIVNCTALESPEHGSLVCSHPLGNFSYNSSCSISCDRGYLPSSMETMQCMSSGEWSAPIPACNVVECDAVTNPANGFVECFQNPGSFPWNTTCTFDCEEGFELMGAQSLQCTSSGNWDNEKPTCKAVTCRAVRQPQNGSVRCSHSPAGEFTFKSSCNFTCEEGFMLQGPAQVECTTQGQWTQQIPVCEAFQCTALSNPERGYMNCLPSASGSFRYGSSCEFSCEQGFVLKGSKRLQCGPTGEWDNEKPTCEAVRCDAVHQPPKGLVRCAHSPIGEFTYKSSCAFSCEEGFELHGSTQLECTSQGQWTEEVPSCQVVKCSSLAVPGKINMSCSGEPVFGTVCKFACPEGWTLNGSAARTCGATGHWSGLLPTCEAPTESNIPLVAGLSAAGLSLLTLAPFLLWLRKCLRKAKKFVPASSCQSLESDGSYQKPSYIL
Experiment: Tested for inhibition of cell adhesion of HL-60 containing SLeX to purified recombinant human E-selectin

IC50: 5 mM
SMILES: CCO[C@@H]1O[C@@H](CO)[C@H](O)[C@H](O[C@@H]2O[C@@H](CO)[C@@H](O[C@@H]3O[C@@H](CO)[C@H](O)[C@H](O[C@]4(C(=O)ON)C[C@@H](O)[C@@H](NC(C)=O)C([C@H](O)[C@H](O)CO)O4)[C@@H]3O)[C@H](O[C@@H]3OC[C@@H](O)[C@H](O)[C@@H]3O)[C@@H]2NC(C)=O)[C@@H]1O (stereo partly specified)
